In the supplement of paper PMC11061612 one finds Bliss excess data, which are given here for six compounds.

Holding throughout (test): Bliss excess, mean over the matrix (fraction); higher = more synergy
Test [1] deals with CL-11 (Colorectal Carcinoma). In outline:
(§1)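 Cell lines in DMEM/F12 or RPMI with 10% FBS were plated in 1536-well plates, held 24 hours at 37°C, 5% CO2, then given two-drug dose matrices for 72 hours (DMSO typically 0.2%). Viability was read by CellTiter-Glo 2.0 luminescence and scaled as inhibition from 0 (vehicle wells) to 1 (blank wells). Combination Emax is the second-highest inhibition in the matrix; Bliss excess is observed combination effect minus expected EA + EB − EA·EB, EA and EB being single-agent effects.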

Test [2] deals with CPC-N (Small Cell Lung Carcinoma). In outline:
as §1

The subject of test [3] is ES6 (Ewing's Sarcoma). A digest of the protocol:
as §1

Test [4] deals with LS-1034 (Colorectal Carcinoma). A digest of the protocol: as §1
In test [5] the test system is MOLP-8 (Plasma Cell Myeloma). In outline: as §1
The test system of test [6] is NCI-H3118 (Head and Neck Carcinoma). In outline: as §1
Test [7] relates to NCI-H596 (Other Solid Carcinomas). In outline:
as §1

The test system of test [8] is OAW-28 (Ovarian Carcinoma). A digest of the protocol:
as §1

The test system of test [9] is OVCAR-3 (Ovarian Carcinoma). In outline: as §1
Test [10] deals with P32-ISH (Burkitt's Lymphoma). A digest of the protocol:
as §1

The subject of test [11] is PA-TU-8988T (Pancreatic Carcinoma). In outline: as §1
Test [12] concerns PL4 (Pancreatic Carcinoma). In outline: as §1
Test [13] relates to RCC-JW (Kidney Carcinoma). In outline: as §1
The subject of test [14] is SK-CO-1 (Colorectal Carcinoma). In outline:
as §1

The test system of test [15] is SKG-IIIa (Cervical Carcinoma). A digest of the protocol: as §1
Test [16] deals with SNU-407 (Colorectal Carcinoma). A digest of the protocol:
as §1

In test [17] the test system is SUP-M2 (T-Cell Non-Hodgkin's Lymphoma). In outline: as §1
Test [18] concerns T47D (Breast Carcinoma). A digest of the protocol: as §1
Test [19] relates to UACC-257 (Melanoma). A digest of the protocol: as §1
Test [20] relates to WM35 (Melanoma). A digest of the protocol: as §1

For `CC(=O)c1c(C)c2cnc(Nc3ccc(N4CCNCC4)cn3)nc2n(C2CCCC2)c1=O` [Palbociclib] + Cc1c2c(nn1C)CSCc1cc(n(C)n1)CSc1cc(c3ccccc3c1)OCCCc1c(C(=O)O)n(C)c3c-2c(Cl)ccc13 [AZD5991] (first compound max 10 µM, 7x7, partner max 1 µM), the Bliss excess is 0.0079 in test [1]; 0.0035 in test [2]; -0.0326 in test [3]; -0.064 in test [4]; 0.0347 in [5]; 0.0084 in test [6]. Moreover, the Bliss excess in test [7] is -0.13; in [8] it was 0.0058; in test [9] it was -0.0553; in test [10], 0.0299; in test [11] it was -0.0361; in [12] it was -0.0458. Moreover, the Bliss excess in [13] is -0.0306; in [14], -0.035; in test [15], -0.0489; in [16], -0.0968; in test [17], -0.0132; in [18], 0.0375. Further, the values for the Bliss excess in [19] and in test [20] were -0.026 and -0.0198, respectively.

For `CC(=O)c1c(C)c2cnc(Nc3ccc(N4CCNCC4)cn3)nc2n(C2CCCC2)c1=O` [Palbociclib] + Cn1cnc2c(F)c(Nc3ccc(Br)cc3Cl)c(C(=O)NOCCO)cc21 [Selumetinib] (first compound max 10 µM, 7x7, partner max 10 µM), the Bliss excess is 0.0303 in test [1]; -0.0271 in [2]; 0.0235 in [3]; 0.0354 in [4]; 0.0926 in [5]; 0.0418 in [6]. Moreover, the Bliss excess in [7] was -0.0393; in test [8], -0.0301; in [9] it was -0.0361; in test [10], -0.0334; in test [11] it was 0.0449; in [12] it was -0.0553. Also, the Bliss excess is -0.0397 in [13]; -0.0121 in test [14]; -0.0394 in test [15]; 0.0615 in test [16]; 0.0342 in test [17]; -0.0328 in [18]. Moreover, the Bliss excess in test [19] is -0.0087; in test [20] it was -0.0282.

Turning to `COc1cccc(OCCCN)c1-c1cc(Nc2cnc(C#N)cn2)n[nH]1` [Prexasertib] + C=CCn1c(=O)c2cnc(Nc3ccc(N4CCN(C)CC4)cc3)nc2n1-c1cccc(C(C)(C)O)n1 [AZD1775] (first compound max 1 µM, partner max 1 µM), the Bliss excess is -0.0496 in [1]; 0.0431 in test [2]; 0.0362 in test [3]; 0.0999 in test [4]; 0.0398 in test [5]; 0.0483 in test [6]. Moreover, the Bliss excess in test [7] amounted to 0.0087; in test [8], 0.0319; in test [9] it was 0.16; in test [10], 0.0657; in test [11], 0.227; in test [12], 0.0483. Also, the Bliss excess in test [13] is 0.169; in test [14] it was 0.0582; in [15], -0.006; in test [16], 0.0807; in [17] it was 0.102; in test [18], 0.085. The Bliss excess in test [19] worked out at 0.0714; in [20], 0.0668.

`COc1cccc(OCCCN)c1-c1cc(Nc2cnc(C#N)cn2)n[nH]1` [Prexasertib] + CCc1c2c(nc3ccc(O)cc13)-c1cc3c(c(=O)n1C2)COC(=O)[C@]3(O)CC [SN-38] (first compound max 1 µM, 7x7, partner max 0.3 µM): the Bliss excess in test [1] is 0.0172; in test [2], 0.0633; in test [3], 0.0156; in test [4], 0.0888; in test [5] it was -0.082; in test [6], 0.0162. The Bliss excess in test [7] was 0.0625; in test [8], -0.0269; in test [9], 0.141; in [10], -0.0201; in [11], 0.167; in [12] it was -0.0027. Further, the Bliss excess was -0.0065 in test [13]; -0.074 in test [14]; 0.0683 in test [15]; -0.0384 in test [16]; -0.0099 in [17]; -0.0399 in test [18]. The Bliss excess in test [19] is -0.0664; in [20], -0.0582.

Take `COc1cccc(OCCCN)c1-c1cc(Nc2cnc(C#N)cn2)n[nH]1` [Prexasertib] + CN(C)CCCOc1ccc(-c2ccc3ncc4c(c3c2)n(C2CCOCC2)c(=O)n4C)cn1 [AZD0156] (first compound max 1 µM, 7x7, partner max 1 µM): the Bliss excess in [1] was -0.0548; in test [2], 0.0081; in [3] it was 0.0091; in [4], -0.0471; in [5], -0.0203; in [6], -0.036. Also, the Bliss excess in test [7] was -0.0909; in [8] it was -0.0139; in test [9], -0.0178; in test [10], -0.0238; in test [11], 0.0179; in test [12] it was -0.0387. In addition, the Bliss excess in test [13] was 0.0281; in [14], -0.0341; in [15], 0.0159; in test [16] it was -0.0146; in test [17], 0.0163; in [18] it was -0.0302. Moreover, the Bliss excess in test [19] stood at 0.0044; in [20], 0.0756.

With `COc1cccc(OCCCN)c1-c1cc(Nc2cnc(C#N)cn2)n[nH]1` [Prexasertib] + C[C@@H]1COCCN1C2=NC(=NC(=C2)C3(CC3)[S@](=N)(=O)C)C4=C5C=CNC5=NC=C4 [AZD6738] (first compound max 1 µM, 7x7, partner max 10 µM), the Bliss excess is -0.058 in [1]; -0.013 in [2]; 0.0366 in [3]; 0.035 in test [4]; -0.0366 in test [5]; -0.032 in [6]. Moreover, the Bliss excess is 0.0159 in [7]; 0.0102 in [8]; 0.032 in test [9]; -0.0127 in [10]; 0.0224 in test [11]; -0.0024 in [12]. In addition, the Bliss excess in test [13] is 0.0671; in [14], -0.0469; in test [15], 0.0363; in test [16] it was -0.0094; in test [17] it was -0.0061; in [18], 0.0003. Also, the Bliss excess is 0.0005 in test [19] and -0.026 in [20].
